According to patent US9308200B2, “Dry powder formulation comprising a phosphodiesterase inhibitor” (CHIESI FARMACEUTICI S.p.A., priority 2010, dated 2016):

System: OVA-induced eosinophilia in BALF
Assay: Acute model of lung inflammation: OVA-induced eosinophilia in BALF of sensitized rats
Assay type: in vivo
Conditions: male Brown-Norway rats; micronized C2 blended with lactose, intratracheal single dose 2 hours before antigen aerosol; range in brackets 0.016 to 0.051
Experimental: The potency of one of the preferred compounds of the present invention was evaluated in vivo in an acute model of lung inflammation following a method described in Eur. J. Pharmacol., 2002 Feb. 22; 437(3):187-94 (which is incorporated herein by reference in its entirety), with minor modifications. Briefly, male Brown-Norway rats (150-200 g) were sensitized by intraperitoneal injection of a suspension containing ovalbumin (OVA, 1 mg/rat) and Al(OH)3 (100 mg/rat) in 1 mL of saline for 3 consecutive days. Two-three weeks later, the airway inflammation was induced by inhaled antigen (OVA, 1% in saline). Vehicle-control treated animals were exposed to an aerosol of saline. […] For the detection of inhibitory potency, micronized compound C2 was blended with lactose at different concentrations and administered by the intratracheal route as single dose 2 hours before antigen aerosol.
A dose-response curve of the inhibitory effect of the test compound on OVA-induced eosinophilia in BALF was performed and the ED50 dose of compound C2 was taken as a measure of potency in this bioassay.

CS(=O)(=O)Nc1ccc(C(=O)OC(Cc2c(Cl)c[n+]([O-])cc2Cl)c2ccc(OC(F)F)c(OCC3CC3)c2)cc1OCC1CC1 (single isomer, unassigned; (-)) [Compound C2, (−)-3-Cyclopropylmethoxy-4-methanesulfonylamino-benzoic acid 1-(3-cyclopropylmethoxy-4-difluoromethoxy-phenyl)-2-(3,5-dichloro-1-oxy-pyridin-4-yl)-ethyl ester]
ED50 dose, inhibition of OVA-induced eosinophilia in BALF: 0.028 µmol/kg
